Results taken from US20110160136A1, “POLYPHENOLS FOR THE TREATMENT OF CARTILAGE DISORDERS” (NESTEC S.A., priority 2008, published 2011).

System: Articular cartilage explants
Assay: IL1β-induced glycosaminoglycan (GAG) release from 35S-labelled articular cartilage explants
Assay type: cell-based, cows
Conditions: polyphenolic compounds extracted e.g. from rosemary plants; qualitative statement
Description: Articular cartilage explants are dissected out of the metacarpophalangeal joint of old cows (8-10 years). The skin is removed from the feet. The articulation is opened transversally. Intra articular ligaments are transected. Full thickness slices of cartilage are dissected out and put in a Petri dish containing DMEM supplemented with 20% FBS ([…]) and antibiotics (penicillin, streptomycin and gentamycin). Under the hood, disks of cartilage obtained by using a biopsy punch (6 mm in diameter) are distributed between the wells of a 96-wells plate containing 200 μl of medium (DMEM+20% FBS, 1% penicillin/streptomycin, 0.1% gentamycin) per well. Finally, plates are put into an incubator (37° C./5% CO2).
Five days after their harvest, the explants are divided into several different treatment conditions:
1—negative control: the wells contain only culture medium. 2—positive stimulatory control: Interleukin 1β(IL1β) is added to the media at the concentration of 50 ng per ml. This cytokine is used to stimulate the catabolism and to induce inflammation. 3—positive inhibitory control: d15-PGJ2 (a peroxisome proliferator activated receptor γ agonist) and hymenialdisine are co-added, to the medium, with IL1β, to counteract the catabolic effect of this cytokine (Sabatini M, et al. (2002) Osteoarthritis Cartilage 10(9): 673-679; Scher J U, et al. (2005) Clin Immunol 114(2): 100-109; Boyault S, et al. (2001) Febs Letters 501(1): 24-30) 4, 5, 6, 7, 8 (if present)—tested compounds: these conditions test the effects of three concentrations of a polyphenol in presence of IL1β.
The explants undergo these treatments for 72 hours in the incubator (37° C., 5% CO2). The following protocol is based on the disclosure of Campbell et al. (1984) Arch Biochem Biophys 234(1): 275-289 and Hascall V C, et al. (1983) ArchBiochem Biophys 224(1): 206-223 and was carried out 48 hours after the harvest of the explants,
Sulphur 35 (35S) was added to the medium to be incorporated into newly synthesized polysulfated glycosaminoglycans within the extracellular matrix of the explants. After 72 hours, several washes were performed to eliminate the non-incorporated radioactivity. The explants were then treated for 72 hours, after which the supernatants were collected and the amount of radioactivity released in the medium was measured with a beta counter, as a marker of glycosaminoglycan (GAG) catabolism. The radioactivity present in the explants was also measured and used to normalize the amount of radioactivity released in the media. The radioactivity was expressed in DPM ([…]) and the GAG release was assessed by the following formula:
GAG release=radioactivity in the supernatants/(radioactivity in the supernatants+radioactivity in the explants)

| SMILES | anti-catabolic potential |
| --- | --- |
| COc1c(O)cc2oc(-c3ccc(O)c(O)c3)cc(=O)c2c1O [6-methoxy-luteolin] | anti-catabolic potential |
| COc1c(OC2OC(COC(=O)C=Cc3ccc(O)cc3)C(O)C(O)C2O)cc2oc(-c3ccc(O)c(O)c3)cc(=O)c2c1O (stereo not shown) [6″-Coumaroylnepitrin] | anti-catabolic potential |
| COc1cc(C=CC(=O)OCC2OC(Oc3cc4oc(-c5ccc(O)c(O)c5)cc(=O)c4c(O)c3OC)C(O)C(O)C2O)ccc1O (stereo not shown) [6″-Feruloylnepitrin] | anti-catabolic potential |
| CC(C)c1cc2c(c(O)c1O)C13CCCC(C)(C)C1C(OC3=O)C2O (stereo not shown) [7-epirosmannol] | anti-catabolic potential |
| CC(C)c1cc2c(c(O)c1O)[C@@]13CCCC(C)(C)[C@@H]1C[C@@H]2OC3=O [carnosol] | anti-catabolic potential |
| COc1cc2oc(-c3ccc(O)cc3)cc(=O)c2c(O)c1OC [cirsimaritin] | anti-catabolic potential |
| O=c1c(O)c(-c2ccc(O)cc2)oc2cc(O)cc(O)c12 [kaempferol] | anti-catabolic potential |
| O=c1cc(-c2ccc(O)c(O)c2)oc2cc(O)cc(O)c12 [luteolin] | anti-catabolic potential |
| CC(C)c1cc2c(c(O)c1O)[C@@]13CCCC(C)(C)[C@@H]1[C@H](OC3=O)[C@H]2O [rosmanol] | anti-catabolic potential |
| O=C(/C=C/c1ccc(O)c(O)c1)O[C@H](Cc1ccc(O)c(O)c1)C(=O)O [rosmarinic acid] | anti-catabolic potential |
